# Assay results taken from patent publication US20140243401A1, “METHODS OF SCREENING COMPOUNDS THAT ARE CYTOTOXIC TO TUMOR CELLS AND METHODS OF TREATING TUMOR CELLS USING SUCH COMPOUND” (The Johns Hopkins University, priority 2010, published 2014).
# Columns and labels:
# [1] = system: Human (non-small cell) lung cancer cell lines; experiment: XTT cytotoxicity assay, human non-small cell lung cancer cell lines; type: cell-based; conditions: 4 human non-small cell lung cancer cell lines, read-out: LC50 (the source's name)
# Description: (§1) Cytotoxicity can be easily measured using XTT assays, which provide an indication of mitochondrial activity. The XTT assay is a non-radioactive alternative for the [^51Cr] release cytotoxicity assay. XTT is a tetrazolium salt that is reduced to a formazan dye only by metabolically active, viable cells. The reduction of XTT is measured spectrophotometrically as OD490-OD650. Thus, cells that are actively metabolizing will form reaction product when subjected to XTT measurement.
# (§2) For this experiment, cells were cultured under standard culture conditions. MCF7 human breast cancer cells were cultured in DMEM containing 5 mM glucose medium with 10% fetal calf serum, 0.01 mg/ml insulin and 1% penicillin/streptomycin. To measure the cytotoxicity of specific compounds against cancer cells, 9×10^3 MCF7 cells were plated per well in 96-well plates. Following overnight culture, the compounds, dissolved in DMSO, were added to the wells in 1 μl volume at specified concentrations. Vehicle controls were run for each experiment. Each condition was run in triplicate. […] Plates were read at OD490 on a PerkinElmer Victor 1420. […]
# (§3) Using the XTT assay, LC50 values for C31 were determined for numerous human cancer cell lines and human hepatocytes, as shown in the following table: […]
# [2] = system: Human colon cancer cell line; experiment: XTT cytotoxicity assay, human colon cancer cell line; type: cell-based; conditions: 1 human colon cancer cell line, read-out: LC50 (the source's name)
# Description: as §1, §2, §3
# MCF 7 cells = experiment: clonogenic assay; type: cell-based, human; conditions: MCF 7, FIG. 4(C)
# Description: In this assay, the effectiveness of specific agents on cell survival and proliferation can be measured in a functional sense. After treatment, surviving cells are re-plated to determine whether the surviving cells are still capable of proliferation. Therefore, this if a more direct measure of cell survival and function.
# 4×10^5 cells were plated in 25 cm^2 flasks. After overnight culture, cells are treated with compounds for specified times and concentrations. After drug treatment, cells are trypsinized and equal numbers of treated and control cells are plated in triplicate in 60-mm dishes at a density of 500 cells/dish in medium without drugs. Clones are stained and counted after 7-10 days
# MCF 7 cells were treated with vehicle, C31 at increasing doses, or Riv7d.
# [3] = system: HCT116 human colon cancer xenograft; experiment: tumor xenograft size, HCT116; type: in vivo, Athymic Nude mice; conditions: 50 mg/kg
# Description: Xenograft studies were performed using various mmFAS inhibitors disclosed herein. Human cancer xenograft studies are known in the art. (See Pizer et al., Cancer Res. 56:1189-1193, 1996; Pizer et al., Cancer Res. 60: 213-218, 2000; Testa et al., Oncogene 24: 7455-7464, 2005).
# In particular, C31 mouse efficacy studies were conducted in order to evaluate anti-neoplastic activity of C31 in vivo. Athymic Nude mice were implanted with HCT116 human colon, SKOV3 human ovarian or OVCAR3 human ovarian cancer cell lines and were treated when the grown tumor xenografts reached at least 150 to 200 mm^3.^1 ^1 Compounds were solubilized in TEP (80% polyethylene glycol (PEG) 400, 10% ethanol, 10% tween-80) in a volume of 50 μL.
# [4] = system: MCF7 human breast cancer cells; experiment: XTT cytotoxicity assay, MCF7; type: cell-based
# Description: as §1
# For this experiment, cells were cultured under standard culture conditions. MCF7 human breast cancer cells were cultured in DMEM containing 5 mM glucose medium with 10% fetal calf serum, 0.01 mg/ml insulin and 1% penicillin/streptomycin. To measure the cytotoxicity of specific compounds against cancer cells, 9×10^3 MCF7 cells were plated per well in 96-well plates. Following overnight culture, the compounds, dissolved in DMSO, were added to the wells in 1 μl volume at specified concentrations. Vehicle controls were run for each experiment. Each condition was run in triplicate. After 24 to 72 h of incubation, cells were incubated for 4 hours with the XTT reagent as per manufacturer's instructions (Cell Proliferation Kit II (XTT) Roche Diagnostics, New Jersey). Plates were read at OD490 on a PerkinElmer Victor 1420. Three wells containing the XTT reagent without cells served as the plate blank. XTT data were reported as OD490.
# MCF7 human breast cancer cells were cultured in DMEM containing 1 mM or 5 mM glucose in the medium with 10% fetal calf serum, 0.01 mg/ml insulin and 1% penicillin/streptomycin. The cells were grown in two oxygen conditions, normoxia (21% 02) or hypoxia (1% 02). To measure the cytotoxicity of specific compounds against cancer cells, 9×10^3 MCF7 cells were plated per well in 96-well plates. Following overnight culture, the compounds, dissolved in DMSO, were added to the wells in 1 μl volume at specified concentrations. After 24 to 72 h of incubation, cells were incubated for 4 h with the XTT reagent as per manufacturer's instructions (Cell Proliferation Kit II (XTT) Roche Diagnostics, New Jersey). Plates were read at OD490 on a PerkinElmer Victor 1420. Three wells containing the XTT reagent without cells served as the plate blank. XTT data were reported as OD490Vehicle controls were run for each experiment. Each condition was run in triplicate.
# [5] = system: AMP-activated protein kinase (AMPK); experiment: AMPK activation (pAMPK Western blot) in SKOV3 cells; type: cell-based, human; conditions: over time, FIG. 8
# Text: Another indicator of cellular energy status and metabolic compromise is the activity on the cellular kinase AMP-activated protein kinase (AMPK). AMPK is a master energy sensor. AMPK regulates both enzyme activities and gene expression. When energy levels are low, and ATP levels fall with the concomitant rise in […] levels, AMPK is activated and phosphorylated. When energy levels are surfeit, AMPK is inactivated and not phosphorylated. Thus, AMPK controls metabolic fluxes between anabolic and catabolic states.
# We determined the ability of C31 or Riv7d to cause the activation of AMPK in a variety of cancer cells in vitro. SKOV3 cells were cultured in DMEM containing 5 mM glucose medium with 10% fetal calf serum, 0.01 mg/ml insulin and 1% penicillin/streptomycin. Antibodies to pAMPK and AMPK were obtained from Cell Signaling. Cells were grown in 6-well plates at 5×10^4 per well and incubated overnight. Following drug treatment, the cells were harvested in Laemmli buffer and boiled for 5 minutes. Proteins were separated on a 4-15% SDS-PAGE gradient gel and transferred to a nitrocellulose membrane.
# [6] = system: Human breast cancer cell lines; experiment: XTT cytotoxicity assay, human breast cancer cell lines; type: cell-based; conditions: 5 human breast cancer cell lines, read-out: LC50 (the source's name)
# Description: as §1, §2, §3
structure (smiles),measurement,setting,value
CCCCCCCCC1(C)SC(=O)C=C1OCC(=O)Nc1ccc(Cl)cc1 (stereo not drawn) [Compound C31],CC50,[1],4 to 8 µg/mL
same,CC50,[2],4 µg/mL
same,viability in clonogenic assay,MCF 7 cells,dose-dependent decrease in viability
same,Average Tumor Size Endpoint (% Change),"[3]; Study 72406, HCT-116, IP b.i.d. 8 days",−59 % Change
same,Average Tumor Size Endpoint (% Change),"[3]; Study 101707, HCT-116, oral b.i.d. 16 days",+256 % Change
same,cytotoxicity (XTT),"[4]; MCF7, 1 mM or 5 mM glucose, 1% or 21% O2, FIG. 9",increases if the cells are hypoglycemic and even more if the cells are hypoxic
same,cytotoxicity / cell viability (XTT),"[4]; MCF7, standard culture, FIG. 4 A, B",concentration-dependent cytotoxicity
same,"AMPK activation (pAMPK levels, Western blot)",[5],rapid activation of AMPK
same,CC50,[6],3.3 to 16.7 µg/mL
